Source: patent US12121521B2, “Uses of salt-inducible kinase (SIK) inhibitors for treating osteoporosis” (The General Hospital Corporation, priority 2016, dated 2024)
“Also recorded” adds a separate entry of the source.

Experiments:
[1] = test system: Ocy454 cells; assay: Immunoblotting of Ocy454 cell lysates (HDAC4/5, CRTC2, SIK2 phosphorylation and localisation); format: cell-based, mouse; conditions: 10 uM, 90 minutes, compared to DMSO control; FIGS. 17 to 19
Method: The Ocy454 osteocyte cell line was treated for 90 minutes with the indicated compound at 10 uM dose (FIG. 17). Phospho-HDAC4 S246 levels were monitored by immunoblotting (top band) compared to DMSO control.
For all experiments, a single cell subclone of Ocy454 cells (17, 18) was used. Cells were passages in alpha-MEM supplemented with 10% heat-inactivated fetal bovine serum and 1% antibiotics (penicillin/streptomycin, Fungizone) at 33° C. with 5% CO2. Cells were plated at 50,000 cells/ml and allowed to reach confluency at 33° C. (typically in 2-3 days). At this point, cells were transferred to 37° C. for subsequent analysis. For immunoblotting, cells were always analyzed after culture at 37° C. for 7 days. For gene expression analysis, cells were analyzed after culture at 37° C. for 14 days. Mycoplasma contamination was ruled out by PCR. Cells were routinely assayed for SOST expression at 37° C. and examined for osteocytic morphology. […]

[2] = Half-life in murine hepatic microsomes; format: in vitro ADME; conditions: compared to YKL-04-114 and HG-9-91-01; FIG. 16
Method: FIG. 16: The half-life (in minute) of the indicated compound was measured in murine hepatic microsomes.

[3] = target: tyrosine kinase Src (Homo sapiens, UniProt P12931); conditions: cited from earlier work
Sequence of tyrosine kinase Src (P12931 whole entry): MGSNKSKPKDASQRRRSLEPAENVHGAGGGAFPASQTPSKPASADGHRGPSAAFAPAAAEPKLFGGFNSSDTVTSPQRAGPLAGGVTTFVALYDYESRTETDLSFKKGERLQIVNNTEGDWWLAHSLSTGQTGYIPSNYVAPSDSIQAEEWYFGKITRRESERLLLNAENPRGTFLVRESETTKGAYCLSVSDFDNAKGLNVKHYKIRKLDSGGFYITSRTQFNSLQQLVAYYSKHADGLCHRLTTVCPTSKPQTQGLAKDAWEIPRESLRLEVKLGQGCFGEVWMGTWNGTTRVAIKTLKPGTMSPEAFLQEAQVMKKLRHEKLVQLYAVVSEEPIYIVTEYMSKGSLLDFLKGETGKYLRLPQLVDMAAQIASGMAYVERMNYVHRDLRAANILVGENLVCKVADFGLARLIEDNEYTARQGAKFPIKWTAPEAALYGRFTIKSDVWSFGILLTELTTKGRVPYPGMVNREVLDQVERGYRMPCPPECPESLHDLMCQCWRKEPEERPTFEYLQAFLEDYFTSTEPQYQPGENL

[4] = test system: male C57B/6 mice; assay: YKL-05-099 dose range once daily for two weeks: histomorphometry; format: in vivo, mouse; conditions: 18 mg/kg once daily
Method: Right tibia from 8-week-old mice were subjected to bone histomorphometric analysis. The mice were injected 20 mg/kg body weight of calcein and 40 mg/kg body weight of demeclocycline on 7 and 2 days before necropsy, respectively. The tibia was dissected and fixed in 70% ethanol for 3 days. Fixed bones were dehydrated in graded ethanol, then infiltrated and embedded in methylmethacrylate without demineralization. Undecalcified 4-μm-thick longitudinal sections were obtained using microtome (RM2255, Leica Biosystems., IL, USA). Sections were left unstained for dynamic parameters measurement, and consecutive sections were stained with tartrate-resistant acid phosphatase and counterstained with toluidine blue for measurement of cellular parameters. A standard dynamic bone histomorphometric analysis of the tibial metaphysis was done using the Osteomeasure analyzing system (Osteometrics Inc., Decatur, GA, USA). Measurements were performed in the area of secondary spongiosa, 200 μm below the proximal growth plate. The observer was blinded to the experimental genotype at the time of measurement. The structural, dynamic and cellular parameters were calculated and expressed according to the standardized nomenclature (75).
Static and dynamic histomorphometry was performed (see FIG. 24). […] Effects on osteoclast differentiation were assessed by TRAP secretion assays and counting multi-nucleated TRAP-positive cells (see FIG. 26). M-CSF signaling in primary macrophages, was assessed by immunoblotting for MCSF-receptor Y723 phosphorylation and ERK1/2 phosphorylation (see FIG. 27).

[5] = In vivo toxicity experiments (weight, CBC, serum chemistry); set-up: species or system mouse
Excerpt: Blood was obtained for the complete blood count (CBC) measurement, and serum was obtained for the glucose, blood urea nitrogen (BUN), cholesterol, triglycerides, ALT, Creatine kinase (CK), amylase, and total protein measurements. […] “WBC” refers to “white blood cell”. “Hgb” refers to “hemoglobin”. “Pit” refers to “platelet”.

SMILES | Phospho-HDAC4 S246 levels [1] | half-life / stability in murine hepatic microsomes [2] | inhibition of the tyrosine kinase Src [3] | Ob.S/BS ([4]; p<0.01 vs vehicle) | trabecular bone volume ([4]; p<0.01 vs vehicle, in % (unit assumed)) | Oc.S/BS ([4]; p<0.05 vs vehicle) | growth or peripheral blood counts ([5]; 4 week treatment) | weight gain ([5]; 4 week treatment (weeks 20-24)) | toxicity judged from hematology data ([5]; 4 week treatment, FIGS. 36A to 36D)
COc1ccc(N2C(=O)N(c3c(C)cccc3C)Cc3cnc(Nc4ccc(C5CCN(C)CC5)c(OC)c4)nc32)c(OC)c1 [YKL-05-093] | showed clear activity with respect to reducing HDAC4 S246 levels; also recorded: most reproducibly led to reduced HDAC4 S246 phosphorylation | improved half-life; also recorded: somewhat improved stability | – | – | – | – | – | – | –
COc1ccc(N2C(=O)N(c3c(C)cccc3Cl)Cc3cnc(Nc4ccc(C5CCN(C)CC5)cc4OC)nc32)nc1 [YKL-05-099] | – | – | known to inhibit the tyrosine kinase Src | 16.8±1.3 | 16.3±2.0 | 1.59±0.4 | Neither PTH nor YKL-05-099 altered growth or peripheral blood counts | normal weight gain | not toxic under the test conditions
